Consider two compounds from PMC11054573, “Identification of Ureidocoumarin-Based Selective Discoidin Domain Receptor 1 (DDR1) Inhibitors via Drug Repurposing Approach, Biological Evaluation, and In Silico Studies” (Pharmaceuticals, 2024).

Assay [1] deals with NCI-H23 non-small cell lung cancer cells. In words: NCI SRB antiproliferative assay, NCI-H23. Type of assay: cell-based. As to conditions: Homo sapiens, read-out: % Growth inhibition at 10 µM NCI-H23. The protocol: (§1) Six members, 3a, 3g–j, and 3q, out of the investigated compounds were further evaluated for their antiproliferative effects against human cancer cell lines, including leukemia (K562), colon cancer (HCT116), non-small cell lung (NSCL) cancer (A549, NCI-H23 and NCI-H460), and breast cancer (MCF-7 and T47D) cells. The tested cell lines’ choice depended on their elevated DDR1 expression levels. The cell lines were all treated with a 10 µM concentration of the tested compounds, and the results were expressed as the percentage of growth inhibition (%GI) (Table 4).
(§2) Inhibition of the tumor relevant carbonic anhydrases IX and XII may be one of these additional mechanisms.
(§3) The evaluation of the antiproliferative activities of compounds 3a, 3g–j, and 3q over a panel of DDR1-dependent cell lines was conducted employing the sensitive Sulforhodamine B (SRB) assay at the National Cancer Institute (NCI), Bethesda, Maryland, USA, following the standard protocol.
In general terms: In SRB staining, fixed cells bind dye roughly in proportion to their protein.

Another assay addresses DDR1 (Homo sapiens, UniProt Q08345). In words: RBC radiometric HotSpot kinase assay, DDR1.
In a further assay the target is T1, TrkA kinase (Homo sapiens, UniProt P04629).
T1 construct: purchased Reaction Biology Corporation (RBC)
In words: Biochemical kinase profile (23 oncogenic kinases), TrkA. As to conditions: 10 μM compound, 10 μM ATP, single-dose duplicate. The method, then:
(§4) These tested kinases were selected based on common off targets for several DDR1/2 kinase inhibitors.
(§5) Reaction Biology Corporation (RBC) Kinase HotSpot^SM service was adopted for biochemical evaluation of the target compounds against DDR1 and DDR2 kinases along with the kinase profile of compound 3q according to the reported assay protocol.
(§6) Figure 5 Inhibition percentages exerted by compound 3q (10 µM) over a panel of 23 oncogenic kinases. Compound 3q was tested in a single-dose duplicate mode, and the reactions were carried out at 10 μM ATP.

For assay [2], the system named is T47D breast cancer cells. In words: NCI SRB antiproliferative assay, T47D. It counts as cell-based. To be noted: Homo sapiens, read-out: % Growth inhibition at 10 µM T47D. The protocol:
as §1, §2, §3

In another assay the target is T2, c-Kit kinase (Homo sapiens, UniProt P10721).
T2 construct: purchased Reaction Biology Corporation (RBC)
In words: Biochemical kinase profile (23 oncogenic kinases), c-Kit. As to conditions: 10 μM compound, 10 μM ATP, single-dose duplicate. The method, then: as §4, §5, §6

Assay [3] deals with MCF-7 breast cancer cells. In words: NCI SRB antiproliferative assay, MCF-7. Type of assay: cell-based. To be noted: Homo sapiens, MCF7; read-out: % Growth inhibition at 10 µM MCF-7. The protocol:
as §1, §2, §3

In the next assay the target is T3, ABL1 kinase (Homo sapiens, UniProt P00519).
T3 construct: purchased Reaction Biology Corporation (RBC)
In words: Biochemical kinase profile (23 oncogenic kinases), ABL1. As to conditions: 10 μM compound, 10 μM ATP, single-dose duplicate; read-out: % inhibition ABL1 kinase (and rest of tested kinases). The method, then: as §4, §5, §6

In assay [4] the test system is HCT116 colon cancer cells. In words: NCI SRB antiproliferative assay, HCT116. As to conditions: Homo sapiens, HCT-116; read-out: % Growth inhibition at 10 µM HCT116. It counts as cell-based. The protocol: as §1, §2, §3
In the next assay the test system is K562 leukemia cells. In words: NCI SRB antiproliferative assay, K562. Type of assay: cell-based. To be noted: Homo sapiens, read-out: % Growth inhibition at 10 µM K562. The method, then:
as §1, §2, §3

Assay [5] relates to NCI-H460 non-small cell lung cancer cells. In words: NCI SRB antiproliferative assay, NCI-H460. As to conditions: Homo sapiens, read-out: % Growth inhibition at 10 µM NCI-H460. It counts as cell-based. The protocol:
as §1, §2, §3

In assay [6] the test system is A549 non-small cell lung cancer cells. In words: NCI SRB antiproliferative assay, A549. Type of assay: cell-based. As to conditions: Homo sapiens, read-out: % Growth inhibition at 10 µM A549. The protocol: as §1, §2, §3
In the next assay the target is T4, DDR2 (Homo sapiens, UniProt Q16832).
T4 sequence (Q16832 22-855): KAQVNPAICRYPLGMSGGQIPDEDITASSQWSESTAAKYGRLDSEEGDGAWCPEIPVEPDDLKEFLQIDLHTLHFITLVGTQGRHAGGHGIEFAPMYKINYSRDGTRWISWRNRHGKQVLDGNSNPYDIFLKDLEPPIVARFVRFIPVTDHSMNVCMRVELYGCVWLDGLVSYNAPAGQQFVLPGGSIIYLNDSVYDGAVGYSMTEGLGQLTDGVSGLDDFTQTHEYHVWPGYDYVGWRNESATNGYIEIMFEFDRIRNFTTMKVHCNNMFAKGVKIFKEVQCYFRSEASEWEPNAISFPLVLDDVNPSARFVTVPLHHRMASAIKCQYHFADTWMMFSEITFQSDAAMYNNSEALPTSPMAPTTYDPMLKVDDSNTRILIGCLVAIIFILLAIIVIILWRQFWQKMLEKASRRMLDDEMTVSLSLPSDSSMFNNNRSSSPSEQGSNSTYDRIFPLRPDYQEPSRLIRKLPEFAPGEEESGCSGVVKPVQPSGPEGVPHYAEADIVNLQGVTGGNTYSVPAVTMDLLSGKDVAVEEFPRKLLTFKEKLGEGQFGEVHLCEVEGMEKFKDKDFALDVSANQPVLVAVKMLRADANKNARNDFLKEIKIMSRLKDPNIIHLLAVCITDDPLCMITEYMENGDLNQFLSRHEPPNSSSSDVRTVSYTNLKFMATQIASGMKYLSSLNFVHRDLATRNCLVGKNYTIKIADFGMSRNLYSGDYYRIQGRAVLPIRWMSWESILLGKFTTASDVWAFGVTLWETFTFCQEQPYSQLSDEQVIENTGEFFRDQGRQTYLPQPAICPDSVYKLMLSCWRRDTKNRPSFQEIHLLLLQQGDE
In words: RBC radiometric HotSpot kinase assay, DDR2.

The test system of assay [7] is DDR1-dependent cancer cell lines. In words: NCI SRB antiproliferative assay, whole panel of DDR1-dependent cell lines. It counts as cell-based, human. As to conditions: 10 µM, span over the seven cell lines. The method, then:
as §1, §2, §3

The test system of assay [8] is A549 non-small cell lung cancer cells. As to conditions: reported data ref 20; cited from earlier work.
In assay [9] the test system is HCT116 colon cancer cells. To be noted: reported data ref 20; cited from earlier work.
In assay [10] the test system is T47D breast cancer cells. As to conditions: reported data ref 20; cited from earlier work.

One may read the inhibition as the percentage by which the read-out fell short of the control. For orientation: IC50 means the point on the concentration scale where inhibition reaches its midpoint. A higher IC50 goes with a need for much substance. In general, GI50 refers to the concentration giving 50% growth inhibition.

A value given as a limit tells only on which side of the number the result lay.

Chain of DDR1 (Q08345 19-913): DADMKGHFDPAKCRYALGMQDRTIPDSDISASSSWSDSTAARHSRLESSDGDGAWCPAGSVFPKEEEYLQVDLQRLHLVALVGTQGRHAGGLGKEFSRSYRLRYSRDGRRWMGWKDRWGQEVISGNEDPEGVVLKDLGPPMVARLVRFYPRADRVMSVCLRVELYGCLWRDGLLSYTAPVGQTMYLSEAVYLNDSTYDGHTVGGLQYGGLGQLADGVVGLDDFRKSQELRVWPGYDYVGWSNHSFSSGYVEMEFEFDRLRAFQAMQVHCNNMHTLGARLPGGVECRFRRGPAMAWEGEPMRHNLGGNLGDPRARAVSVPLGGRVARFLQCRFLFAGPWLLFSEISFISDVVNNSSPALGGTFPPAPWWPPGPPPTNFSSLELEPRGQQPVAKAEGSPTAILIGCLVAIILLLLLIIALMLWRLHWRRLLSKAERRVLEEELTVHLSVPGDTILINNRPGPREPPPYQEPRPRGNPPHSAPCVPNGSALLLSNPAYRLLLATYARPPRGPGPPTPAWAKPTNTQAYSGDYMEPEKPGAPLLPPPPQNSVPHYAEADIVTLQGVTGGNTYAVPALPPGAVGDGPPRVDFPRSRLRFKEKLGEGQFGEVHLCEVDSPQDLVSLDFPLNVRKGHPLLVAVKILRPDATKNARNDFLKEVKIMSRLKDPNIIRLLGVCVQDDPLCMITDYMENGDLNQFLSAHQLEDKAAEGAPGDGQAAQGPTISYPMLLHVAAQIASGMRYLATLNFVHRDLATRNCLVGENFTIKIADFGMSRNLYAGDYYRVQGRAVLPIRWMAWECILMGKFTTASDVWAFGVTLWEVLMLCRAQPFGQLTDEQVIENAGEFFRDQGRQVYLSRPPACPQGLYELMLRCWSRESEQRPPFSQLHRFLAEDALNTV
T2 sequence (P10721 26-976): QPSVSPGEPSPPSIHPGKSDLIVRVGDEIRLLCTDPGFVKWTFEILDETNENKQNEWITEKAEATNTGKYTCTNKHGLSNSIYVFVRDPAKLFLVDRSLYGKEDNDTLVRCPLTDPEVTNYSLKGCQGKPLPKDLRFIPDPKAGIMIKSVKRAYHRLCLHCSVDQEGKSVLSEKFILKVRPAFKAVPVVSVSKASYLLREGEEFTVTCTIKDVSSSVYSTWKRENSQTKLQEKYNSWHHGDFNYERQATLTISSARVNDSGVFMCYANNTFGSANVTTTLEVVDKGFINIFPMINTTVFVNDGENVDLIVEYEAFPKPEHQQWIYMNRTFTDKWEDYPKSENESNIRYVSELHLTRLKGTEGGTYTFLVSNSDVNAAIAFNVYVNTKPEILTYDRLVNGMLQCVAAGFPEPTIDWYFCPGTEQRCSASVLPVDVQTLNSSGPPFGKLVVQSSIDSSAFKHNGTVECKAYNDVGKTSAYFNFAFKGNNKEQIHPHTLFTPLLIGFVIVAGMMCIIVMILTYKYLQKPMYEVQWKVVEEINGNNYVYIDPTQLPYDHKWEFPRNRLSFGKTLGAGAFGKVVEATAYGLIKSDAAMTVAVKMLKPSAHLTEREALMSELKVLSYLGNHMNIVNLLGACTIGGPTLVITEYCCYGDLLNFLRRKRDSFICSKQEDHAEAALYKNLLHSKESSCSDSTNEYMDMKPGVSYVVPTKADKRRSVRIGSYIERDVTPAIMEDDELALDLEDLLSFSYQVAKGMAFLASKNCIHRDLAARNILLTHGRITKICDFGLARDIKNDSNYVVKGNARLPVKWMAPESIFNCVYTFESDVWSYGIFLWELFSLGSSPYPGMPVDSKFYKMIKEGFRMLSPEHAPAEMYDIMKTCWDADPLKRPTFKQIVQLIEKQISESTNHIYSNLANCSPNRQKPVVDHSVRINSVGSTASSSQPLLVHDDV
T1 sequence (P04629 33-796): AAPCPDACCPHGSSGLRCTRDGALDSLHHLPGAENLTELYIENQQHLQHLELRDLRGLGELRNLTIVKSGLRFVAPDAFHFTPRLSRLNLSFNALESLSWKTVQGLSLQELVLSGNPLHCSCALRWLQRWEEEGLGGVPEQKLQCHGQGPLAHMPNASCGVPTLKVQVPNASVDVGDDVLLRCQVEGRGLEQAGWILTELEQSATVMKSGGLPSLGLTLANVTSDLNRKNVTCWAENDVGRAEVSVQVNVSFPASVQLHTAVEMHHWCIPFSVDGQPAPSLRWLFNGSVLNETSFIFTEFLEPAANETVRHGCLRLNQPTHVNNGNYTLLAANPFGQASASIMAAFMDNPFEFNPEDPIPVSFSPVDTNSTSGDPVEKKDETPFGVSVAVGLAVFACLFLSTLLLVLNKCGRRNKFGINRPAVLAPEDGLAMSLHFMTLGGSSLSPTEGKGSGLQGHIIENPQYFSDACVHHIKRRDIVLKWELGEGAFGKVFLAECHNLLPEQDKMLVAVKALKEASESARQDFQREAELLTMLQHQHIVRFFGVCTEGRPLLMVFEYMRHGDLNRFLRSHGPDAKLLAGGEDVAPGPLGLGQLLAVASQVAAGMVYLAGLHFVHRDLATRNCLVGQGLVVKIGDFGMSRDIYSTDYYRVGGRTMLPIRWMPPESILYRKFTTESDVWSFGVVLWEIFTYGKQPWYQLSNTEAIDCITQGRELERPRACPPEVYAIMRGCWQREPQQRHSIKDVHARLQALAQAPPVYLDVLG
T3 sequence (P00519 whole entry): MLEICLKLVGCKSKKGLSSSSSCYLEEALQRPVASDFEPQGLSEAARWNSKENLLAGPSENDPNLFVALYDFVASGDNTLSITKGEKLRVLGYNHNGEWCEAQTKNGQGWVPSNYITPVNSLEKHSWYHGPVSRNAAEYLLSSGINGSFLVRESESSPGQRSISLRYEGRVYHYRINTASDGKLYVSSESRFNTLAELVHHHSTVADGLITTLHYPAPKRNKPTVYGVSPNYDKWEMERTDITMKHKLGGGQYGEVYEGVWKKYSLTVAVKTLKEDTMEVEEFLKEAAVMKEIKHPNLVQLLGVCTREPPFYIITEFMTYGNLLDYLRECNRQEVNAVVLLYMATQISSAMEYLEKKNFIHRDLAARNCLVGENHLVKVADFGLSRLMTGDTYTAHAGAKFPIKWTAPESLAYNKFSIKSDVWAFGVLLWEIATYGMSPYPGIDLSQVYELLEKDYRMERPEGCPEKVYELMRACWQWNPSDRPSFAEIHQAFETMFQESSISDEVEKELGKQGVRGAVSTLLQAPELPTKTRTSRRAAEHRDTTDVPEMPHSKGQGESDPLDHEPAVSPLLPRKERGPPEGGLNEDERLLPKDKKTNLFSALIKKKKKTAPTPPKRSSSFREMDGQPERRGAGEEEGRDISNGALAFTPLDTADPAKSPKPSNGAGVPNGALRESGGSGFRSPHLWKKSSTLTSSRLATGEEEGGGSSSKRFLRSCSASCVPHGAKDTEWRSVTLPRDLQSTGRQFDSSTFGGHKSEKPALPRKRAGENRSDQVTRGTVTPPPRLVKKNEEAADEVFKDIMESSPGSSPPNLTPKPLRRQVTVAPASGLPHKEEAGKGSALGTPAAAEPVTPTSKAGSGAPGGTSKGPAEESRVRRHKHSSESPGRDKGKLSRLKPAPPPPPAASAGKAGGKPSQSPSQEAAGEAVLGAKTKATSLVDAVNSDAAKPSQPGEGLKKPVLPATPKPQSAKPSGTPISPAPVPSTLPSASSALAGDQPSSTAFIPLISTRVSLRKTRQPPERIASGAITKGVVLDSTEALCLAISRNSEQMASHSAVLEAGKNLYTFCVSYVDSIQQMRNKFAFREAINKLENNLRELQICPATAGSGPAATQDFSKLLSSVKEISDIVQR
Procedure for DDR2: All compounds in this study were tested against DDR1 and DDR2 at a 10 µM dose at Reaction Biology Corporation (RBC, Malvern, PA, USA) employing the radiometric HotSpot Kinase assay protocol (Table 1).

`O=C(Nc1cccc(OC(F)(F)F)c1)Nc1ccc2oc(=O)ccc2c1` [Compound 3q, 1-(2-Oxo-2H-chromen-6-yl)-3-(3-(trifluoromethoxy)phenyl)urea]: the inhibition at 10 µM in assay [1] was 56.6%; at DDR1 (read-out: % Inhibition at 10 μM (SEM) DDR1) it was 87.4%; in the assay on T47D breast cancer cells [2], 69.4%; in [3] it was 57%; at ABL1 kinase, less than 25%; in [4], 66.3%. The inhibition at 10 µM with K562 leukemia cells came out at 67.1%; in assay [5] it was 69.9%; in assay [6] it was 45.6%; at DDR2 (read-out: % Inhibition at 10 μM (SEM) DDR2) it was 70.1%. Further, the IC50 worked out at 0.191 µM against DDR1 and 5.08 µM against DDR2. At DDR1 (DDR1 over DDR2), the “SI: Selectivity index (IC50 DDR2/IC50 DDR1)” value was found to be 26.6. Also, the “%EI TrkA kinase” value at TrkA kinase stood at 46.95%. The “%EI c-Kit kinase” value at c-Kit kinase turned out to be 75.59%. For the same compound, the “%GI over all tested cell lines” value in assay [7] is 45.65–69.93%.
As for `CCN1CCN(Cc2ccc(C(=O)Nc3ccc(C)c(Oc4ccc5c(c4)CC(=O)N5)c3)cc2C(F)(F)F)CC1` [DDR1-IN-1], the GI50 is greater than 10 µM in assay [8], 8.7 µM in [9] and greater than 10 µM in the assay on T47D breast cancer cells [10]. The IC50 against DDR2 was 0.0597 µM.
